This is an account of results in patent US20260167614A1, “IDENTIFICATION OF SMALL MOLECULES THAT RECRUIT AND ACTIVATE RNASE L” (UNIVERSITY OF FLORIDA RESEARCH FOUNDATION, INCORPORATED, priority 2022, published 2026).

Assay type in all cases: cell-based
The subject of assay [1] is phosphorylation of extracellular signal-regulated kinase (ERK). Description: Western blot of pERK versus ERK (RTK signaling). Particulars: CRISPR-Control sgRNA MDA-MB-231 cells. As to the method: Quantification of Protein Levels by Western Blotting. MDA-MB-231 cells were treated as described in “Cell Culture.” After treatment, the medium was removed, and the cells were washed with 1× Dulbecco's phosphate-buffered saline (DPBS). Total protein was extracted using Mammalian Protein Extraction Reagent (M-PER, Thermo Scientific) according to the manufacturer's protocol. Protein concentration was measured using a Pierce Micro BCA Protein Assay kit (Fisher Scientific). Approximately 20 μg total protein was loaded onto a Tris-glycine gel with a 5% polyacrylamide stacking layer and a 10% polyacrylamide resolving layer. The gel was run at 140 V for ˜1.5 h in 1× Running Buffer (25 mM Tris base, pH 8.3, 190 mM glycine, and 0.1% (w/v) SDS). After electrophoresis, the protein was transferred to a PVDF membrane using 1× Transfer Buffer (25 mM Tris base, pH 8.3, 190 mM glycine, and 20% (v/v) methanol). The membrane was then washed with 1×TBST (Tris-buffered saline with 0.1% (v/v) Tween 20) and blocked in a solution of 5% (w/v) milk in 1×TBST for 30 min with shaking at room temperature. The membrane was then incubated overnight at 4° C. in a solution of primary antibody diluted in 1×TBST containing 5% (w/v) milk. […]
In general terms: In western blotting, separated proteins are transferred to a membrane and probed.

The subject of a further assay is MDA-MB-231 cells. Description: Boyden chamber invasion assay, MDA-MB-231. Particulars: 5 μM. As to the method: (§1) The effect of the RiboTAC on a miR-21-associated invasive phenotype was next assessed. Treatment with 5 μM of 7 reduced the invasiveness of MDA-MB-231 cells, by ˜30% (p<0.05) (FIG. 4E-F). […] While forced expression of a mutant pre-miR-21 in which the Dovitinib-binding site is mutated also produced an invasive phenotype, the cells were insensitive to treatment with 7 (FIG. 12).
Boyden Chamber Invasion Assay. Hanging cell culture inserts (for 24-well plates, 8.0 μm) were pre-coated with 0.3 mg/mL Matrigel (Corning, 356234). MDA-MB-231 cells (75,000 per insert) were then seeded into the hanging inserts in serum free growth medium, with or without compound (0.1% final DMSO concentration). The inserts were then placed into 24-well plates containing complete. After 16-24 h, the medium was removed, and the hanging inserts were washed with 1×DPBS. Cells were fixed for 20 min at room temperature with 4% (w/v) paraformaldehyde in 1×DPBS. The inserts were washed twice with 1×DPBS and then stained with 0.1% (w/v) crystal violet in 20% methanol (v/v) for 20 min. The inserts were then washed twice with Nanopure water and once with 1×DPBS. Cells on the surface of the Matrigel (noninvasive) were removed with cotton swabs and invading cells were imaged under a Leica DMI3000 B […] fluorescent microscope (the number of invasive cells in 4 fields of view per sample).

For assay [2], the system named is MDA-MB-231 cells modified with CRISPR and a control guide RNA. Nature of the assay: Global proteomics analysis via LC-MS/MS. As to the method: RiboTAC 7 was then assessed for its ability to affect protein levels by deactivation of a miR-21-mediated cancer circuit, i.e., derepression of PDCD4. […] Proteome-wide analysis was also completed to study the effects of 7 and a locked nucleic acid (LNA) oligonucleotide that targets miR-21-5p on the proteome. The concentrations tested of both provided similar activity (5 nM of 7 and 100 nM of the LNA), as assessed by their effect on PDCD4 levels, ˜40% enhancement. […] Neither modality affected proteins that are direct targets of miRNA let-7b-5p, further supporting that RiboTAC 7 is selectively deactivating a miR-21-mediated cancer circuit in cells (FIG. 11C-11D).
Global proteomics analysis via LC-MS/MS. MDA-MB-231 cells modified with CRISPR and a control guide RNA were treated as described in “Cell Culture.” After treatment, the medium was removed, and the cells were washed with 1×DPBS. After washing, the cells were scraped from the culture plates, and the resulting suspension was centrifuged. Cell pellets were resuspended in 1×DPBS, and protein concentration was determined using a Pierce Micro BCA Protein Assay Kit (ThermoScientific). Urea (9 M in 100 mM NH4HCO3, pH 8) was added to a final concentration of 6 M to 30 μg lysate (15 μL prepared in 1×DPBS). […] Peptides were desalted over a self-packed C18 spin column, dried, and analyzed via LC-MS/MS. […]

Assay [3] has as its system MCF-10A cells. Description: Boyden chamber invasion assay, MCF-10A with mutant pre-miR-21. The following applies: Dovitinib-binding site mutated. As to the method: as §1
(§2) MCF-10A cells were first transfected with either a plasmid expressing pre-miR-21 (Addgene; catalog #21114) or a plasmid encoding a pre-miR-21 mutant (custom purchased from GenScript USA, Inc, FIG. 8) using jetPRIME (Polyplus), per the manufacturer's protocol (3.2 μg of plasmid per 60 mm dish). After transfection, cells (50,000 per insert) were seeded into the hanging inserts in serum free growth medium, with or without compound (0.1% final DMSO concentration). The assay was then completed as described for the MDA-MB-231 cells.

For assay [4], the system named is MCF-10A cells. Description: Boyden chamber invasion assay, MCF-10A with forced pre-miR-21 expression. Particulars: WT pre-miR-21 plasmid. As to the method:
as §1, §2

As for `CNC(=O)[C@H](c1ccccc1)N(C)Cc1ccc(-c2cccc(-c3sccc3NC(=O)CCOCCOCCOCCC(=O)NCCN3CCN(c4ccc5nc(-c6c(N)c7c(F)cccc7[nH]c6=O)[nH]c5c4)CC3)c2)cc1` [RiboTAC 7, (S)—N-(2-(4-(2-(4-amino-5-fluoro-2-oxo-1,2-dihydroquinolin-3-yl)-1H-benzo[d]imidazol-6-yl)piperazin-1-yl)ethyl)-3-(2-(2-(3-((2-(4′-((methyl(2-(methylamino)-2-oxo-1-phenylethyl)amino)methyl)-[1,1′-biphenyl]-3-yl)thiophen-3-yl)amino)-3-oxopropoxy)ethoxy)ethoxy)propanamide], the “effect on the levels of ERK or pERK” value in assay [1] was “no effect”. Besides, in the assay with MDA-MB-231 cells, the reduction of invasiveness was roughly 30%. For the same compound, the “abundance of miR-21-repressed proteins (cumulative distribution analysis)” value in assay [2] (proteins encoded by mRNAs with a miR-21-5p binding site in 3′ UTR) is given as “statistically significant increase”. For the same compound, the “proteins affected of the 3176 proteins detected” value in assay [2] (proteome-wide, 7 and LNA at concentrations of similar activity) came out at 0.6%. In addition, in the assay on MCF-10A cells [3], the “invasive phenotype induced by forced expression of mutant pre-miR-21” value is “insensitive”. In addition, in the assay with MCF-10A cells [4], the “invasive phenotype induced by forced expression of pre-miR-21” value was “rescued”.
